In the NIST ThermoML archive (doi:10.1016/j.fluid.2018.09.026):
“And” between values parts separate entries of the source, which are not always exact repeats. Equal entries are not always repeated.

Details: Liquid; for mass density: Vibrating tube method; for viscosity: Vibrating wire viscometry

OCCOCCO [diethylene glycol]
Details	mass density	viscosity
303.15 K, 63850 kPa	1134.9 kg/m3	–
303.15 K, 68760 kPa	1136.6 kg/m3	–
303.27 K, 180 kPa	–	21.44 mPa·s [middle of 5 runs]
303.27 K, 190 kPa	–	21.49 mPa·s
303.27 K, 1070 kPa	–	21.42 mPa·s
303.27 K, 1080 kPa	–	21.42 mPa·s and 21.5 mPa·s and 21.48 mPa·s
303.27 K, 2100 kPa	–	21.72 mPa·s and 21.69 mPa·s
303.27 K, 5160 kPa	–	22.14 mPa·s and 22.35 mPa·s and 22.13 mPa·s
303.27 K, 5170 kPa	–	22.08 mPa·s
303.27 K, 10180 kPa	–	22.97 mPa·s
303.27 K, 10190 kPa	–	23.05 mPa·s and 23.2 mPa·s and 23 mPa·s
303.27 K, 20040 kPa	–	24.7 mPa·s and 25.05 mPa·s and 24.87 mPa·s
303.27 K, 30920 kPa	–	26.77 mPa·s [middle of 5 runs]
303.27 K, 40100 kPa	–	28.49 mPa·s [middle of 5 runs]
303.27 K, 50040 kPa	–	30.4 mPa·s
303.27 K, 50050 kPa	–	30.52 mPa·s and 30.43 mPa·s
303.27 K, 50060 kPa	–	30.59 mPa·s
303.27 K, 50070 kPa	–	30.49 mPa·s
303.27 K, 68860 kPa	–	34.35 mPa·s
303.27 K, 68920 kPa	–	34.55 mPa·s
303.27 K, 69030 kPa	–	34.74 mPa·s
303.27 K, 69090 kPa	–	34.81 mPa·s
313.15 K, 100 kPa	1101.7 kg/m3 and 1101.6 kg/m3	–
313.15 K, 640 kPa	1101.8 kg/m3	–
313.15 K, 1140 kPa	1102.1 kg/m3	–
313.15 K, 1640 kPa	1102.3 kg/m3	–
313.15 K, 2100 kPa	1102.5 kg/m3	–
313.15 K, 3090 kPa	1103 kg/m3	–
313.15 K, 5130 kPa	1103.9 kg/m3	–
313.15 K, 6960 kPa	1104.8 kg/m3	–
313.15 K, 9960 kPa	1106.1 kg/m3	–
313.15 K, 14940 kPa	1108.4 kg/m3	–
313.15 K, 19750 kPa	1110.6 kg/m3	–
313.15 K, 24640 kPa	1112.7 kg/m3	–
313.15 K, 29640 kPa	1114.8 kg/m3	–
313.15 K, 34510 kPa	1116.9 kg/m3	–
313.15 K, 39340 kPa	1118.9 kg/m3	–
313.15 K, 44340 kPa	1120.9 kg/m3	–
313.15 K, 49190 kPa	1123.2 kg/m3	–
313.15 K, 54020 kPa	1124.7 kg/m3	–
313.15 K, 59030 kPa	1126.7 kg/m3	–
313.15 K, 63880 kPa	1128.5 kg/m3	–
313.15 K, 68820 kPa	1130.3 kg/m3	–
313.38 K, 200 kPa	–	14.25 mPa·s and 14.24 mPa·s and 14.26 mPa·s
313.38 K, 210 kPa	–	14.23 mPa·s [middle of 5 runs]
313.38 K, 1170 kPa	–	14.28 mPa·s and 14.27 mPa·s
313.38 K, 1180 kPa	–	14.33 mPa·s
313.38 K, 2300 kPa	–	14.28 mPa·s
313.38 K, 2310 kPa	–	14.5 mPa·s
313.38 K, 2320 kPa	–	14.38 mPa·s
313.38 K, 5060 kPa	–	14.69 mPa·s and 14.72 mPa·s
313.38 K, 5070 kPa	–	14.63 mPa·s and 14.65 mPa·s
313.38 K, 5080 kPa	–	14.64 mPa·s
313.38 K, 10280 kPa	–	15.26 mPa·s
313.38 K, 10290 kPa	–	15.13 mPa·s
313.38 K, 10300 kPa	–	15.2 mPa·s
313.38 K, 20100 kPa	–	16.33 mPa·s
313.38 K, 20110 kPa	–	16.16 mPa·s and 16.17 mPa·s
313.38 K, 30110 kPa	–	17.27 mPa·s and 17.34 mPa·s and 17.33 mPa·s
313.38 K, 40110 kPa	–	18.5 mPa·s [middle of 4 runs]
313.38 K, 50110 kPa	–	19.66 mPa·s and 19.68 mPa·s
313.38 K, 50120 kPa	–	19.64 mPa·s
313.38 K, 50130 kPa	–	19.61 mPa·s
313.38 K, 69490 kPa	–	22.11 mPa·s
313.38 K, 69530 kPa	–	22.04 mPa·s
313.38 K, 69580 kPa	–	21.98 mPa·s
323.15 K, 100 kPa	1094.3 kg/m3	–
323.15 K, 680 kPa	1094.6 kg/m3	–
323.15 K, 1130 kPa	1094.8 kg/m3	–
323.15 K, 1570 kPa	1095 kg/m3	–
323.15 K, 2100 kPa	1095.2 kg/m3	–
323.15 K, 3080 kPa	1095.7 kg/m3	–
323.15 K, 5080 kPa	1096.7 kg/m3	–
323.15 K, 7000 kPa	1097.6 kg/m3	–
323.15 K, 9950 kPa	1099 kg/m3	–
323.15 K, 14890 kPa	1101.4 kg/m3	–
